Laboratory results as given in patent publication US20090274645A1, “GALL MIDGE PHEROMONE MIXTURE” (priority 2006, published 2009).
“Also recorded” adds a separate entry of the source. Like-named read-outs stand apart in the source and are kept apart here. Marks after values point to notes of the source that are not given here.

How the values were obtained:
[1] = test system: male Hessian fly antennae; assay: GC-EAD recordings of male antennal responses; parameters: species or system Mayetiola destructor; conditions: for antennal responses in males to synthetic compounds: GC-EAD, whole males mounted; for antennal responses to compounds in female gland extract: GC-EAD of female Hessian fly extract (20 female equivalents)
Description: Coupled gas chromatographic-electroantennographic detection (GC-EAD, Arn et al 1975) was used to analyse female gland extracts. GC-EAD is an efficient tool to determine which compounds in an extract that the male antennae can perceive, by use of the highly specific olfactory receptor neurons. In a CC-EAD set-up (FIG. 3), the effluent of the GC column is split between the flame ionisation detector (FID) of the CC and the antennal detector (EAD). The GC separates the compounds in the extract over time and the compounds are detected by the FID. Simultaneously, the eluting compounds also pass the male antennae via a constant charcoal-filtered and humidified air stream. The male antennae are connected to two electrodes and, if the antennae perceive a compound, neural signals are generated and these signals are recorded as an electroantennogram (EAG). Since the olfactory receptors on the antennae are highly specific, they will more or less exclusively respond to the pheromone compounds in the extract. In addition to pheromone extracts, GC-EAD can be used to analyse all sorts of compound blends, e.g. host volatile collections and synthetic pheromone compounds. Irrespective of what kind of substances that are analysed, simultaneous recordings from the FID and the EAD give information on which compounds in the blend that are interesting for chemical identification and/or behavioural testing.
In addition to gland extracts, GC-EAD was used to analyse seven synthetic compounds (Table 2).
A Hewlett-Packard 6890 GC (Palo Alto, Calif., USA) with flame ionization detection and an Innowax column (30 m×0.25 mm ID, H-P) was used for the GC-EAD recordings. The column was programmed from 80° C./2 min to 220° C. at 10° C./min. Since male Hessian fly antennae are very sensitive to desiccation whole male bodies instead of excised antennae were mounted in an antenna holder (JoAC, Lund, Sweden) (FIG. 4). The antennal holder is made of Plexiglas with two wells connected to an amplifier by gold wire electrodes and males were mounted in the antennal holder as described by Hillbur et al (2001). The antennae were exposed to a charcoal-filtered and humidified air stream at a rate of ca 0.3 m/s through a glass tube (8 mm diameter). The signals from the antennae were amplified (JoAC) before they were recorded and analysed with ElectroAntennoGraphy software (Syntech, Hilversum, The Netherlands).

[2] = test system: male Hessian flies (antennal responses); conditions: Hillbur et al unpublished, cited from earlier work; for elicit antennal responses in male Hessian flies: GC-EAD; for known to elicit antennal responses (mark in Table 2): earlier GC-EAD
male Hessian flies [3] = assay: Y-tube olfactometer two-choice bioassays; assay type: in vivo, Mayetiola destructor
Description: The attractiveness of different synthetic pheromone blends and female gland extracts were studied in a mobile glass Y-tube olfactometer, (FIG. 5a). The arms of the Y-tube were 14 cm long, the stem 12.5 cm and the inner diameter was 2.2 cm. Charcoal-filtered and humidified air was pumped (Micro pump NMP 30 KNDC, 12 V, KNF Neuberger, Germany) through Teflon tubes and entered each arm via a custom made 9.5 cm long glass tube, (Humi Glas, Södra Sandby, Sweden) (FIG. 5b). […] In the centre of the glass tube was a glass rod (ca 1 cm long; 0.5 cm diameter) containing a centred small hole. During experiments, the stimulus was applied on a small piece of filter paper (1.5×0.5 cm) attached to a ca 1.5 cm long steel wire. The steel wire was placed in the hole of the glass rod to position the stimulus in the centre of the tube. […]
Six different two-choice bioassays were performed to evaluate differences in attractiveness of the main pheromone component (abbreviated: 1), 2S-E10-13:OAc, a three-component blend (abbreviated: 3) consisting of 2S-E10-13:OAc, 2S-E10-13:OH and 2S-13:OAc, and two different four-component blends, both consisting of the compounds included in the three-component blend but with either 2S-E8-E10-13:OAc (abbreviated: 4E) or 2S-Z8-E10-13:OAc (abbreviated: 4Z) added. […] Data from the […] bioassays were analysed by chi-square tests.

male Hessian flies [4] = conditions: wind tunnel, Harris and Foster (1991); cited from earlier work
male Hessian flies [5] = conditions: field study, main compound alone, cited from earlier work

Row | SMILES | antennal responses in males to synthetic compounds [1] | antennal responses to compounds in female gland extract [1] | elicit antennal responses in male Hessian flies [2] | known to elicit antennal responses (mark in Table 2) [2] | further results
1 | CCCC/C=C/CCCCCCC[C@H](C)OC(C)=O [2S-E10-15:OAc, (2S,10E)-10-pentadecen-2-yl acetate] | did not elicit antennal responses; also recorded: No responses were recorded | – | – | – | –
2 | CC/C=C/CCCCCCCCC[C@H](C)OC(C)=O [2S-E12-15:OAc, (2S,12E)-12-pentadecen-2-yl acetate] | did not elicit antennal responses; also recorded: No responses were recorded | – | – | – | –
3 | CC/C=C/C=C\CCCCC[C@H](C)OC(C)=O [2S-Z8-E10-13:OAc, (2S,8Z,10E)-8,10-tridecadien-2-yl acetate] | elicited antennal responses; also recorded: males respond; also recorded: responded | – | – | – | –
4 | CC/C=C\CCCCCCC[C@H](C)OC(C)=O [2S-Z10-13:OAc] | a response was recorded | antennal responses | – | – | antennal responses to compounds in female gland extract ([1]; listed as 23-Z10-13:OAc): respond
5 | CCCCCCCCCCC[C@H](C)OC(C)=O [2S-13:OAc, (2S)-tridecan-2-yl acetate] | elicited antennal responses; also recorded: responded | antennal responses | elicit antennal responses | (2S-13:OAc) * | –
6 | CC/C=C/CCCCCCC[C@H](C)OC(C)=O [2S-E10-13:OAc, (2S,10E)-10-tridecen-2-yl acetate] | elicited antennal responses; also recorded: responded | antennal responses | elicit antennal responses | (2S-E10-13:OAc) * | responding males attracted when compared to blank (male Hessian flies [3]; Y-tube, main component alone versus blank): over 90%; attractiveness to males versus blank (male Hessian flies [3]; blank-1 bioassay, 10 ng, p<0.001): significantly more attracted; males that contacted the odour source (male Hessian flies [4]): 56%; catch of male Hessian flies in the field (male Hessian flies [5]): did not catch any male Hessian flies; catch of male Hessian flies in the field (male Hessian flies [5]; listed as main component): did not catch any males
7 | CC/C=C/CCCCCCC[C@H](C)O [2S-E10-13:OH, (2S,10E)-10-tridecen-2-ol] | responded | antennal responses | elicit antennal responses | (2S-E10-13:OH) * | antennal responses in males to synthetic compounds ([1]; listed as 2S-E0-13:OH): elicited antennal responses
8 | CC/C=C/C=C/CCCCC[C@H](C)OC(C)=O [2S-E8-E10-13:OAc, (2S,8E,10E)-8,10-tridecadien-2-yl acetate] | elicited antennal responses; also recorded: males respond; also recorded: responded | – | – | – | –
